This note sets out measurements from PubChem BioAssay (NCI).

Some test systems named below: NCI-H522 lung; SF-539 CNS; RPMI-8226 leukemia; SK-OV-3 ovarian; NCI-H226 lung; A549 NSCLC; SN12C renal; COLO 205 colon; EKVX NSCLC; A498 renal.
What all share (test): NCI-60 cell line screen, 48 h

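1) Cells in 96-well plates. 2) Compound, 48 h, 5 concentrations. 3) Linear interpolation between surrounding doses. 4) Unreached endpoint = highest concentration. GI50 is the concentration that inhibits growth by half. TGI: total growth inhibition.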

As to `CC(=O)N1CCN(C2=Nc3ccccc3CO2)C1=S`, the GI50 in the test on NCI-H522 lung is 49.2 µM; in the test with SF-539 CNS, over 100 µM; in the test on RPMI-8226 leukemia, 41.4 µM; with SK-OV-3 ovarian, over 100 µM; in the test on NCI-H226 lung, over 100 µM; with A549 NSCLC, over 100 µM. For the same molecule, the GI50 with SN12C renal is over 100 µM; in the test with COLO 205 colon, over 100 µM; in the test with EKVX NSCLC it was 45.1 µM. The TGI with NCI-H522 lung, in the test with SF-539 CNS, in the test with RPMI-8226 leukemia, with SK-OV-3 ovarian, with NCI-H226 lung and in the test with A549 NSCLC was over 100 µM in each case. In addition, the TGI in the test on SN12C renal, in the test with COLO 205 colon and in the test on EKVX NSCLC was over 100 µM throughout.

As for `CC1CC2C3CC(F)C4=CC(=O)C=CC4(C)C3(F)C(O)CC2(C)C1(O)C(=O)COC(=O)C(C)(C)C` (stereo not given), the TGI in the test on NCI-H522 lung, in the test with SF-539 CNS, in the test on RPMI-8226 leukemia, in the test with NCI-H226 lung, in the test on A549 NSCLC and with COLO 205 colon was over 100 µM in each case. For the same molecule, the TGI with EKVX NSCLC is over 100 µM.

Turning to `CC(C)(C)OC(=O)NCCNC1=CC(=O)c2nc3ccccc3c3ccnc1c23`, the GI50 in the test with A498 renal was 0.101 µM; with NCI-H522 lung, 18.3 µM; in the test with SF-539 CNS it was 20.2 µM; with SK-OV-3 ovarian it was 43.3 µM; in the test with NCI-H226 lung, 21.1 µM; in the test on A549 NSCLC it was 18.4 µM. The GI50 with SN12C renal was 17.7 µM; in the test with COLO 205 colon it was 12.7 µM; with EKVX NSCLC it was 41.4 µM. Also, the TGI was 29.2 µM in the test on A498 renal; 44.8 µM in the test on NCI-H522 lung; 40.5 µM in the test with SF-539 CNS; over 100 µM in the test on SK-OV-3 ovarian; 52.8 µM in the test with NCI-H226 lung; over 100 µM in the test with A549 NSCLC. Also, the TGI in the test on SN12C renal was 55.6 µM; with COLO 205 colon, 34.7 µM; with EKVX NSCLC it was over 100 µM.

For the molecule `CCC(C)CN1C(=O)NC(C)(Cc2ccccc2)C1=O` (stereo not given), the TGI with NCI-H522 lung, in the test with SF-539 CNS, in the test with NCI-H226 lung, in the test with A549 NSCLC, with SN12C renal and with COLO 205 colon was over 100 µM in each case. The same molecule returned a TGI in the test on EKVX NSCLC of over 100 µM.

On to `CCCCCCCCCCCOC(=S)NC(C)C`, for which the TGI was 39 µM in the test with A498 renal; 39.7 µM in the test with NCI-H522 lung; 35.4 µM in the test on SF-539 CNS; 33.2 µM in the test with RPMI-8226 leukemia; 49.6 µM in the test with SK-OV-3 ovarian; 51.1 µM with A549 NSCLC. Also, the TGI with SN12C renal came out at 30.1 µM; with EKVX NSCLC, 43.3 µM.

For the molecule `Cc1ccc(C(=O)O/N=C2/CCCC/C2=C\c2ccccc2)cc1`, the TGI with NCI-H522 lung is 31.7 µM; with SF-539 CNS, over 100 µM; in the test with RPMI-8226 leukemia it was over 100 µM; in the test with SK-OV-3 ovarian, over 100 µM; with NCI-H226 lung it was over 100 µM; with A549 NSCLC, 39.3 µM. The TGI with SN12C renal, in the test with COLO 205 colon and in the test on EKVX NSCLC was over 100 µM throughout.

Take `O=[As](O)(O)c1ccc(NCc2ccccc2)cc1`: the TGI in the test with A498 renal, in the test with NCI-H522 lung, with RPMI-8226 leukemia, with NCI-H226 lung, in the test with A549 NSCLC and in the test with SN12C renal was over 100 µM in each case. Besides, the TGI with COLO 205 colon and in the test with EKVX NSCLC was over 100 µM throughout.

Consider `CCC[CH2][Sn]([CH2]CCC)([O]C(=O)c1c(F)cccc1F)[O]C(=O)c1c(F)cccc1F`, for which the GI50 with A498 renal is 0.967 µM; with NCI-H522 lung, 0.0905 µM; in the test on SF-539 CNS it was 1.02 µM; with SK-OV-3 ovarian, 1.82 µM; in the test on NCI-H226 lung it was 1.89 µM; with A549 NSCLC, 3.12 µM. Further, the GI50 is 0.777 µM in the test on SN12C renal, 0.574 µM in the test on COLO 205 colon and 1.04 µM in the test on EKVX NSCLC. Moreover, the TGI was found to be 2.16 µM with A498 renal; 0.213 µM in the test on NCI-H522 lung; 2.2 µM in the test with SF-539 CNS; 3.24 µM in the test on SK-OV-3 ovarian; 3.32 µM with NCI-H226 lung; 11 µM in the test on A549 NSCLC. Moreover, the results for the TGI with SN12C renal, with COLO 205 colon and in the test with EKVX NSCLC were 2.03 µM, 1.74 µM and 2.22 µM, respectively.

In the case of `N#Cc1cccc(N2C(=O)c3c(c(-c4ccccc4)c(-c4ccc(Sc5ccc(-c6c(-c7ccccc7)c7c(c(-c8ccccc8)c6-c6ccccc6)C(=O)N(c6cccc(C#N)c6)C7=O)cc5)cc4)c(-c4ccccc4)c3-c3ccccc3)C2=O)c1`, the TGI with NCI-H522 lung, in the test with SF-539 CNS, in the test on RPMI-8226 leukemia, in the test with A549 NSCLC, in the test on SN12C renal and in the test with COLO 205 colon was over 100 µM in each case. Besides, the TGI in the test with EKVX NSCLC was over 100 µM.

Consider `N=C(c1ccccc1)N(c1ccccc1)c1ccccc1`, for which the TGI in the test on NCI-H522 lung, in the test with SF-539 CNS, with NCI-H226 lung, in the test on A549 NSCLC, in the test on SN12C renal and with COLO 205 colon was over 100 µM in each case. Also, in the test with EKVX NSCLC, the TGI was over 100 µM.

For the molecule `COc1cc(-c2nn3c(/C=C4/C(=O)Nc5ccccc54)c(-c4ccc(C)cc4)nc3s2)cc(OC)c1OC`, the GI50 is 7.28 µM with A498 renal; 10.2 µM in the test on NCI-H522 lung; 12.9 µM in the test with SF-539 CNS; 15.2 µM in the test with SK-OV-3 ovarian; 22.5 µM in the test with NCI-H226 lung; 2.12 µM in the test with A549 NSCLC. Moreover, the GI50 with SN12C renal was 5.26 µM. Further, the TGI was 36.7 µM with A498 renal; 37.5 µM in the test on NCI-H522 lung; 96 µM in the test on SF-539 CNS; 39.7 µM with SK-OV-3 ovarian; 59.9 µM in the test with NCI-H226 lung; over 100 µM with A549 NSCLC. Further, the TGI in the test with SN12C renal was over 100 µM.

For `CN(C)c1ccc2c(c1)C(=O)N(OS(=O)(=O)c1ccc([N+](=O)[O-])cc1)C2=O`, the TGI with A498 renal was over 100 µM; in the test on NCI-H522 lung, 30.5 µM; in the test with SF-539 CNS it was 33.8 µM; with SK-OV-3 ovarian, over 100 µM; in the test on NCI-H226 lung, over 100 µM; with A549 NSCLC, over 100 µM. Besides, the TGI in the test with SN12C renal is 56.4 µM; in the test on COLO 205 colon it was 54.6 µM; in the test with EKVX NSCLC, over 100 µM.
